Earlier results on two molecules are cited in patent US20240225064A1, “METHOD FOR MASS-PRODUCING SWEETENER HAVING TASTE QUALITY SIMILAR TO THAT OF SUGAR AND HAVING D-ALLULOSE FUNCTIONALITY” (NATIONAL UNIVERSITY CORPORATION KAGAWA UNIVERSITY, priority 2021, published 2024).

Where two headings read alike, the source gives them in different places.

Experiment in data set [1]: not given
This is another data set of the same source.

The conditions of data set [2]: content in sweetener.

For `O=C(CO)[C@H](O)[C@H](O)[C@H](O)CO` [D-allulose], the “acute oral toxicity test” value was ≥ 5,000 mg/kg. Besides, in data set [1] (assuming that the sweetness degree of sugar is 100), the “sweetness degree (sweetness intensity)” value was 70. Further, the “sweetness degree relative to sugar” value in data set [1] (of that of sugar) is “about 70%”. In addition, the “D-allulose content at which the function of suppressing rapid absorption of a saccharide appears” value in data set [2] is reported as at least 5 mass %.

For the molecule `O=C(CO)[C@@H](O)[C@H](O)[C@H](O)CO` [D-fructose], the results for the “sweetness of D-fructose relative to sucrose” value in data set [1] (at 40° C.) and in data set [1] (at high temperatures) were “equal thereto” and 60%, respectively.
